Calls of active or inactive are those of the source. The calls are words filed in the database; no cut-off is given here.
What was measured:
HT-1080 [1] = test: Cytotoxicity against human HT-1080 cells assessed as reduction in cell viability incubated for 48 hrs by MTT assay; type: functional, cell-based; details: HT-1080, 48 h
[2] = Selectivity index, ratio of IC50 for cytotoxicity against human HT-1080 cells in presence of Fer-1 to IC50 for cytotoxicity against human HT-1080 cells; type: functional
HT-1080 [3] = test: Cytotoxicity against human HT-1080 cells assessed as reduction in cell viability incubated for 48 hrs in presence of Fer-1 by MTT assay; type: functional, cell-based; details: HT-1080, 48 h
MCF7 = test: Cytotoxicity against human MCF7 cells assessed as reduction in cell viability incubated for 48 hrs by MTT assay; type: functional, cell-based; details: MCF7, 48 h
4T1 [4] = test: Cytotoxicity against mouse 4T1 cells assessed as reduction in cell viability incubated for 48 hrs by MTT assay; type: functional, cell-based; details: 4T1, 48 h
4T1 [5] = test: Effect on intracellular GSH level in mouse 4T1 cells assessed as reduction in GSH level; type: functional, cell-based
[6] = target: T1, Phospholipid hydroperoxide glutathione peroxidase GPX4 (Homo sapiens) (UniProt P36969); test: Inhibition of GPX4 in mouse 4T1 cells assessed as decrease in intracellular GPX4 activity at 5 uM after 6 hrs; type: cell-based
T1 sequence (whole entry): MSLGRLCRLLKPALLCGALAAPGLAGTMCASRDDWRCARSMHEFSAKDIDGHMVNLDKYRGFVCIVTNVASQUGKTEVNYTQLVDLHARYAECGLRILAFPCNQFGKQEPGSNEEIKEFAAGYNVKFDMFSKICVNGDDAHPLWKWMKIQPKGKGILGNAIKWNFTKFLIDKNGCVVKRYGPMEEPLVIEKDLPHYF

Row | inhibition [6] | Structure (SMILES) | IC50 (HT-1080 [1]) | Ratio IC50 [2] | IC50 (HT-1080 [3]) | IC50 (MCF7) | IC50 (4T1 [4]) | Activity (4T1 [5])
1 | – | C=CCNC(=O)C(c1c[nH]c2ccccc12)N(C(=O)CCl)c1ccc(C(=O)OCC)cc1 (stereo not drawn) | 0.74 µM | 6.2 | 4.57 µM | 12.6 µM | 2.15 µM | –
2 | – | CCOC(=O)c1ccc(CN(C(=O)CCl)C(C(=O)NCCc2ccccc2)c2c[nH]c3ccccc23)cc1 (stereo not drawn) | 2.3 µM | 1.91 | 4.4 µM | 14.8 µM | 5.86 µM | –
3 | – | O=C(NCCc1ccccc1)C(c1c[nH]c2ccccc12)N(C(=O)CCl)c1ccc(-c2cnco2)cc1 (stereo not drawn) | 0.16 µM | 24.5 | 3.92 µM | 5.7 µM | 1.04 µM | –
4 | – | CCOC(=O)c1ccc(N(C(=O)CCl)C(C(=O)NCCc2ccccc2Cl)c2c[nH]c3ccccc23)cc1 (stereo not drawn) | 0.89 µM | 3.6 | 3.21 µM | 13.4 µM | 2.31 µM | –
5 | – | CCOC(=O)c1ccc(N(C(=O)CCl)C(C(=O)NCCc2ccccc2)c2c[nH]c3ccccc23)cc1 (stereo not drawn) | 0.3 µM | 14.7 | 4.43 µM | 8.71 µM | 1.93 µM | –
6 | – | CCOC(=O)c1ccc(N(C(=O)CCl)C(C(=O)NCCc2ccccc2)c2cc[nH]n2)cc1 (stereo not drawn) | 0.7 µM | 6.1 | 4.3 µM | 15.2 µM | 4.47 µM | –
7 | – | CCOC(=O)c1ccc(N(C(=O)CCl)C(C(=O)NC(C)(C)C)c2c[nH]c3ccccc23)cc1 (stereo not drawn) | 0.43 µM | 9.8 | 4.2 µM | 12.1 µM | 3.22 µM | –
8 | – | O=C(NCCc1ccccc1)C(c1c[nH]c2ccccc12)N(C(=O)CCl)c1ccc(Br)cc1 (stereo not drawn) | – | – | – | 10.9 µM | 6.47 µM | –
9 | – | CCOC(=O)c1ccc(N(C(=O)CCl)C(C(=O)NCCc2ccc(Cl)cc2)c2c[nH]c3ccccc23)cc1 (stereo not drawn) | 0.43 µM | 10 | 4.31 µM | 16.3 µM | 2.07 µM | –
10 | – | CCOC(=O)c1ccc(CN(C(=O)CCl)C(C(=O)NCc2ccccc2)c2c[nH]c3ccccc23)cc1 (stereo not drawn) | 3 µM | 1.63 | 4.9 µM | 20.4 µM | 9.91 µM | –
11 | – | O=C(NCCc1ccccc1)C(c1c[nH]c2ccccc12)N(C(=O)CCl)c1ccc(F)cc1 (stereo not drawn) | – | – | – | 13.5 µM | 9.21 µM | –
12 | – | COc1ccc(N(C(=O)CCl)C(C(=O)NCCc2ccccc2)c2c[nH]c3ccccc23)cc1 (stereo not drawn) | – | – | – | 15.3 µM | 9.72 µM | –
13 | – | CCOC(=O)c1ccc(CN(C(=O)CCl)C(C(=O)NC(C)(C)C)c2c[nH]c3ccccc23)cc1 (stereo not drawn) | 16 µM | 1 | 16 µM | 15.5 µM | 9.43 µM | –
14 | – | CCOC(=O)c1ccc(N(C(=O)CCl)C(C(=O)NCCc2ccccc2)c2c[nH]c3ncccc23)cc1 (stereo not drawn) | 3.2 µM | 1.7 | 5.3 µM | 6.85 µM | 9.3 µM | –
15 | – | O=C(NCCc1ccccc1)C(c1csc2ccccc12)N(C(=O)CCl)c1ccc(-c2nnco2)cc1 (stereo not drawn) | 0.2 µM | 19.5 | 3.9 µM | 7.06 µM | 0.81 µM | –
16 | 11.8% | COC(=O)c1ccc([C@H]2c3[nH]c4ccccc4c3C[C@H](C(=O)OC)N2C(=O)CCl)cc1 | 1.2 µM | 3.1 | 3.7 µM | 13.6 µM | 3.69 µM | inactive
17 | – | Cc1noc(-c2ccc(N(C(=O)CCl)C(C(=O)NCCc3ccccc3)c3c[nH]c4ccccc34)cc2)n1 (stereo not drawn) | 0.33 µM | 12.8 | 4.21 µM | 13.2 µM | 1.94 µM | –
18 | – | Cc1noc(-c2ccc(N(C(=O)CCl)C(C(=O)NCCc3ccccc3)c3csc4ccccc34)cc2)n1 (stereo not drawn) | 0.21 µM | 16.7 | 3.5 µM | 8.28 µM | 0.75 µM | –
19 | – | N#Cc1ccc(N(C(=O)CCl)C(C(=O)NCCc2ccccc2)c2c[nH]c3ccccc23)cc1 (stereo not drawn) | 0.75 µM | 5.6 | 4.2 µM | 6.85 µM | 9.3 µM | –
20 | – | CCOC(=O)c1ccc(N(C(=O)CCl)C(C(=O)NCCc2ccccc2)c2ccnn2C)cc1 (stereo not drawn) | 2.1 µM | 1.2 | 2.5 µM | 8.97 µM | 10.2 µM | –
21 | – | O=C(NCCc1ccccc1)C(c1c[nH]c2ccccc12)N(C(=O)CCl)c1ccc(-c2nnco2)cc1 (stereo not drawn) | 0.35 µM | 12.9 | 4.52 µM | 5.92 µM | 0.89 µM | –
22 | – | CCOC(=O)c1ccc(N(C(=O)CCl)C(C(=O)NCCc2cccc(Cl)c2)c2c[nH]c3ccccc23)cc1 (stereo not drawn) | 0.37 µM | 12.2 | 4.5 µM | 9.26 µM | 1.99 µM | –
23 | – | CCOC(=O)c1ccc(N(C(=O)CCl)C(C(=O)NCCc2ccccc2)c2csc3ccccc23)cc1 (stereo not drawn) | 0.28 µM | 16.8 | 4.7 µM | 12.5 µM | 1.48 µM | –
24 | – | CCOC(=O)c1ccc(N(C(=O)CCl)C(C(=O)NCCc2ccccc2)c2cccc3[nH]ccc23)cc1 (stereo not drawn) | 0.4 µM | 3.2 | 1.3 µM | 14.8 µM | 2.96 µM | –
25 | – | CCOC(=O)c1ccc(N(C(=O)CCl)C(C(=O)NC2CCCCC2)c2c[nH]c3ccccc23)cc1 (stereo not drawn) | 0.93 µM | 3.7 | 3.45 µM | 9.01 µM | 4.63 µM | –
26 | – | CCOC(=O)c1ccc(N(C(=O)CCl)C(C(=O)NCCc2cccc(OC)c2)c2c[nH]c3ccccc23)cc1 (stereo not drawn) | 0.41 µM | 11.9 | 4.88 µM | 11.3 µM | 2.35 µM | –
27 | – | CCOC(=O)c1ccc(N(C(=O)CCl)C(C(=O)NCCc2cccc(C(F)(F)F)c2)c2c[nH]c3ccccc23)cc1 (stereo not drawn) | 0.56 µM | 9 | 5.03 µM | 10.3 µM | 2.17 µM | –
28 | – | COc1ccc(N(C(=O)CCl)C(C(=O)NCCc2ccccc2)c2cccs2)cc1Cl (stereo not drawn) | 0.66 µM | 11.1 | 7.31 µM | 10.1 µM | 2.52 µM | –
29 | – | CCOC(=O)c1ccc(N(C(=O)CCl)C(C(=O)NCc2ccccc2)c2c[nH]c3ccccc23)cc1 (stereo not drawn) | 1.1 µM | 5.8 | 6.4 µM | 11.9 µM | 4.92 µM | –

From ChEMBL document CHEMBL4842375, “Discovery of a Potent Glutathione Peroxidase 4 Inhibitor as a Selective Ferroptosis Inducer” (J Med Chem, 2021)
